US6265423A, “Aromatic polycyclic retinoid-type derivatives, method for preparing same, and use thereof for making pharmaceutical and cosmetic compositions” (priority 1996, dated 2001)

Legend:
[1] = test system: response element RARE of RARβ gene, endogenic retinoic receptors, HRLN lineage; assay: HRLN transactivation (RARE-luciferase, stably transfected HeLa); assay type: cell-based
Procedure: (§1) MCF-7 cells and HeLa are cultivated in DMFM with phenol red to which 5% foetal calf serum is added. The T47-D cells are cultivated in RPMI to which 10% foetal calf serum is added. The experimental tests are carried out in DMEM without phenol red to which foetal calf serum treated with dextran carbon is added at 3%. […] The experiments using the different retinoids are carried out sheltered from the light so as to avoid any isomerisation.
(§2) Certain properties of the retinoids have been determined using more developed cellular models. These models consist of cellular lineages transfected in a stable fashion by recombinant plasmids which place the expression of the gene of the luciferase under the control of different nuclear response elements. […] The tests carried out in duplicate are described below for each of these models.
The cellular lineages HRLN and HRL+N allow one to study the activation of an RARE by endogenic receptors using ligands at physiological concentrations. These lineages derive from HeLa cells transfected in a stable fashion by a reporter gene which places the expression of the gene of the luciferase under the control of a nuclear response element RARE (RARE3 -tk-Luc). The HeLa cells express all the known receptors of the retinoic acid (RARα,β,γ and RXRα,β,γ) with a predominance of RARα and RXRα. The response element RARE used for the HRLN cells corresponds to the sequence of the natural gene of the RARβ receptor (GGTTCAnnnnnAGTTCA). The HRL+N cells comprise the sequence GAGTGAnnnnnCGGTGA.
This lineage comprises the response element RARE of the natural gene of the RARβ receptor which controls the expression of the gene of the luciferase.

[2] = test system: AP-1, MTLN lineage (MCF-7); assay: Anti-AP-1 effect, MTLN lineage activated by TPA; assay type: cell-based, human
Procedure: as §2
The anti-factor AP-1 transrepressor effect of retinoids is determined using the MTLN lineage, coming from MCF-7 cells transfected in a stable fashion by a vector p(TRE)3 -tk-Luc which places the expression of the gene of luciferase under the control of […]. TPA activates the AP-1 complex formed from proteins of the family of nuclear proto-oncogenes (c-Jun and c-Fos). […] The experiments are made with the MTLN cells activated by 10^-7 M TPA.
The effect of the compounds on the MTLN cells activated by 10^-7 M TPA is expressed as a percentage. […] The inhibitive properties of the products are calculated after deduction of the base activity of the cells. The percentages reported correspond to a range of inhibitions determined from several experiments.

RARα-ERcassette = assay: Transactivation, chimerical receptor RARα-ERcassette (HeLa); assay type: cell-based; settings: TTNPB 10^-8 M = 100
Text: (§3) The HeLa cells are co-transfected by a plasmid which codes for a retinoic receptor in which the C domain of bonding to the DNA is substituted by that of the receptor to RE oestrogens, and a plasmid which places the expression of the luciferase under the control of an ERE (Element of Response to Oestrogens). The expressed chimerical receptors are designated as RARα-ERcassette, RARβ-ERcassette, RARγ-ERcassette and RXRα-ERcassette. The A, B, D, E and F regions of the natural receptor are preserved as well as the transcriptional co-operation between the activation domains AF-1 and AF-2. These transitory transfection experiments follow the method of co-precipitation to calcium phosphate. The HeLa cells are co-transfected by […] of plasmid coding for the chimerical receptor, […] of reporter plasmid and […] of expression vector CMV-β-galactosidase used as an internal control of transfection. 24 hours after the transfection, the cells are incubated for 16 hours with the different effectors.
(§4) In this type of chimerical receptor, the C domain of bonding to the DNA of RAR is substituted by that of the receptor to the RE oestrogens. The protein obtained is close to the natural RAR receptor and preserves the transcriptional properties of the AF-1 and AF-2 domains. It modulates the transcription by means of an ERE. This RAR-ERcassette model allows one to observe a transcriptional response to a more physiological ligand.

[3] = test system: RAR-ERcassettes (RARα, RARβ, RARγ); assay: Chimerical receptors RAR-ERcassettes, overall profile; assay type: cell-based
Text: as §3, §4

RARγ-ERcassette = assay: Transactivation, chimerical receptor RARγ-ERcassette (HeLa); assay type: cell-based; settings: TTNPB 10^-8 M = 100
Text: as §3, §4

T-47D cells = assay: Effect on oestrogen-induced proliferation of T-47D cells; assay type: cell-based, human; settings: Homo sapiens, T47D, 168 h; 10^-6 M; 100% = E2 10^-9 M, 7 days; read-out: growth of T-47D cells
Procedure: as §1
So as to test the anti-proliferation effect of the retinoids, growth experiments under oestrogenic conditions were carried out on cells MCF-7 and T-47D. These are the human oestrogen-dependent mammary cancer cells which express the receptor to RE oestrogens. The effect of the molecules is evaluated after 7 days of culture in oestrogenic conditions (estradiol 10^-9 M) by dosing the cellular DNA. The cells are distributed in 24 well plates at a density of 2×10^4 cells per well. The tests with the different retinoids are carried out in triplicate and the culture medium is changed after 4 days of growth.

RAR and RXR receptors = assay: RAR/RXR activity profile drawn from the models; assay type: cell-based
Text: The reference molecules have allowed one to show the effectiveness and the complementary nature of the different models used and lead to the following conclusions: chimerical constructions GAL-RAR and RAR-ERcassette allow the determination of the RAR agonist profile of molecules, but also an RXR agonist activity with RAR-ERcassette, the HRLN lineage mainly conveys the activity of a compound mediated by endogenic RARα, the HRL+N lineage also provides evidence of an RXR agonist activity of the retinoids, the anti-oestrogenic effect of the retinoids (oestrogen-induced cellular proliferation and MELN lineage) is mediated by RARα, the anti-AP-1 effect is mediated in the MCF-7 cells (MTLN lineage) by RARα, RARγ and RXRα, and an additive effect exists between the RAR and RXR routes.

[4] = test system: ERE-βGlob-Luc, MELN lineage (MCF-7); assay: Anti-oestrogenic effect, MELN lineage activated by estradiol; assay type: cell-based, human
Text: as §2
MCF-7 cells express RARα,γ and RXRα. The transfection of MCF-7 cells by an oestrogen-dependent gene (ERE-βGlob-Luc) has permitted the establishment of the MELN cellular lineage, used to determine the anti-oestrogenic activity of the retinoids. These cells contain the gene of the luciferase under the transcriptional control of the promoter of the βGlobine and of the response element ERE isolated from the gene of chicken vitelogenine A2. The experiments are carried out with MELN cells activated by 10^-9 M estradiol. The level of base activity of the MELN cells is obtained with the anti-oestrogen 1 μM 4-OH-tamoxifen (hydroxytamoxifen).
The effect of the products tested on the cells activated by 10^-9 M estradiol is expressed as a percentage, the level of base activity being deducted.

RARβ-ERcassette = assay: Transactivation, chimerical receptor RARβ-ERcassette (HeLa); assay type: cell-based; settings: TTNPB 10^-8 M = 100
Text: as §3, §4

[5] = test system: T-47D human mammary cancer cells; assay: MTT test, proliferation of T-47D; assay type: cell-based
Procedure: (§5) The cells that were cultured came from the ATCC (American Type Culture Collection).
(§6) The cellular lines are kept in culture in a monolayer at 37° C. in closed culture dishes (Nunc. Gibco BRL, Life Technologies, Belgium) containing the minimum essential medium (MEM, Gibco) supplemented with 5% of Foetal Calf Serum, (FCS, Gibco), 0.6 mg/ml of glutamine (Gibco) and a mixture of 200 IU/mi of penicillin (Gibco), 200 μg/ml of streptomycin (Gibco) and 0.1 mg/ml of gentamycin (Gibco). The foetal calf serum is decomplemented for 1 hour at 56° C.
(§7) This test is based on the mitochondrial reduction by living metabolically active cells of the MTT (3-(4,5-dimethylthiazol-2-yl)-2,5-diphenyltetrazolium bromide) of yellowish colour into a blue coloured product, formazan. The quantity of formazan obtained is directly proportional to the number of living cells. After incubation of the cells for 24 hours in microplates with 96 flat bottomed wells, the culture medium is replaced by 100 μl of fresh culture medium containing the drug to be tested.
(§8) The microplates are then incubated for 3 hours at 37° C. and centrifuged for 10 minutes at 400 g (GPR centrifuge, Beckman). The MTT solution is replaced by 100 μl of dimethylsulphoxide (Merck). The microplates are agitated (Vari-Shaker, Dynatech) for 10 minutes.
(§9) In the microplates, the control cells like the treated cells were incubated in a medium without the compounds to be tested for 24 hours. The control cells are incubated in a medium without a drug throughout the whole experiment, while the treated cells are incubated in different media. These media contain the molecule to be tested at various concentrations: 10^-8 M, 10^-6 M and 10^-4 M. All the tests are carried out in 6 duplicates.
(§10) The statistical comparisons are carried out according to the Fisher Test:
(§11) The mean optical density measured for each experimental condition is expressed as a percentage in relation to the laid down control condition being equal to 100%.

[6] = test system: A-427 human pulmonary cancer cells; assay: MTT test, proliferation of A-427; settings: Homo sapiens, A-427, 72 h, read-out: level of proliferation
[7] = test system: A549 human pulmonary cancer cells; assay: MTT test, proliferation of A549; assay type: cell-based
[8] = cited from earlier work
[9] = test system: ZR-75-1 human mammary cancer cells; assay: MTT test, proliferation of ZR-75-1; assay type: cell-based
Procedure: as §5, §6, §7, §8, §9, §10, §11

[10] = Homo sapiens, A549, 72 h, read-out: level of proliferation

C/C(=C/c1ccc2c(c1)C(C)(C)CCC2(C)C)c1ccc(C(=O)O)s1 [CB30382, (Z) 2-[1-(5,6,7,8-tetrahydro-5,5,8,8-tetramethyl-2-naphthalenyl)-2-propenyl]thienyl-5-carboxylic acid]
HRLN transactivation (in words) [1]: induce a transactivation close to that of TTNPB
Emax ([1]; Homo sapiens, HeLa, read-out: HRLN transactivation, E max): 102%
inhibition at 1 µM ([2]; Homo sapiens, MCF7, 10^-6 M, cells activated by 10^-7 M TPA, range of several experiments): 42 to 47%
inhibition at 0.1 µM ([2]; Homo sapiens, MCF7, 10^-7 M, cells activated by 10^-7 M TPA, range of several experiments, read-out: anti-AP-1 effect, inhibition): 21%
anti-AP-1 effect (in words) ([2]; TPA-activated MTLN cells): exert an inhibitor effect comparable to that of the effect of CB28628
RAR-ERcassette RARα transactivation (RARα-ERcassette; 10^-6 M): 93%
RAR-ERcassette RARα transactivation (RARα-ERcassette; 10^-7 M): 12%
RAR-ERcassette profile (in words) [3]: induce a transactivation mediated by the three receptors
RAR-ERcassette RARγ transactivation (RARγ-ERcassette; 10^-6 M): 83%
RAR-ERcassette RARγ transactivation (RARγ-ERcassette; 10^-7 M): 29%
activity at 1 µM (T-47D cells): 73 to 94%
RAR/RXR activity profile (in words) (RAR and RXR receptors): panagonistic
inhibition ([4]; Homo sapiens, MCF7, 10^-6 M, cells activated by 10^-9 M estradiol): 2 to 20%
inhibition at 0.1 µM ([4]; Homo sapiens, MCF7, 10^-7 M, cells activated by 10^-9 M estradiol, read-out: anti-oestrogenic effect, inhibition): 0%
anti-oestrogenic effect (in words) ([4]; estradiol-activated MELN cells): permit a transrepression of a controlled gene by an ERE
RAR-ERcassette RARβ transactivation (RARβ-ERcassette; 10^-6 M): 130%
RAR-ERcassette RARβ transactivation (RARβ-ERcassette; 10^-7 M): 39%

CC1=C(/C=C/C(C)=C/C=C/C(C)=C\C(=O)O)C(C)(C)CCC1 [CB81808, 13-cis retinoic acid, reference compound]
activity at 100 µM ([5]; Homo sapiens, T47D, T-47D, 10^-4 M, 72 h, control = 100%, read-out: level of proliferation): 9.94%
activity at 1 µM ([5]; Homo sapiens, T47D, T-47D, 10^-6 M, 72 h, control = 100%, read-out: level of proliferation): 51.8%
activity at 0.01 µM ([5]; Homo sapiens, T47D, T-47D, 10^-8 M, 72 h, control = 100%, read-out: level of proliferation): 70.3%
effect on cellular increase, T-47D (in words) ([5]; MTT test): inhibit the cellular increase of the two mammary lineages at the concentrations tested
activity at 0.01 µM [6]: 100%
activity at 1 µM [6]: 99.6%
activity at 100 µM [6]: 6.5%
activity at 0.01 µM [7, 10]: 77.6%
activity at 1 µM [7, 10]: 85.9%
activity at 100 µM [7, 10]: 23.6%
effect on cellular increase, A549 (in words) ([7]; MTT test): inhibit the proliferation of the A549 lineage at 10^-6 M and 10^-8 M
adverse effects in chronic treatment (in words) [8]: powerful effect of hypervitaminose, of mucocutaneous toxicity and of teratogenecity
activity at 100 µM ([9]; Homo sapiens, ZR-75-1, 10^-4 M, 72 h, control = 100%, read-out: level of proliferation): 2.3%
activity at 1 µM ([9]; Homo sapiens, ZR-75-1, 10^-6 M, 72 h, control = 100%, read-out: level of proliferation): 55%
activity at 0.01 µM ([9]; Homo sapiens, ZR-75-1, 10^-8 M, 72 h, control = 100%, read-out: level of proliferation): 41.6%
effect on cellular increase, ZR-75-1 (in words) ([9]; MTT test): inhibit the cellular increase of the two mammary lineages at the concentrations tested
